Publication PMC3445516 (PLoS ONE, 2012)

Experiments:
Assay in all cases: Ambit kinase profiling, competition binding
INSRR = biological target: T1, INSRR (Homo sapiens, UniProt P14616); conditions: compound concentration 10 uM, read-out: Percent Competition
T1 construct: purchased Ambit Biosciences (KINOMEscan)
Source text: (§1) Supplement pone.0044653.s004.xls, sheet "Compound 122" | column: Percent Competition

YSK1 = biological target: T2, YSK1 (Homo sapiens, UniProt O00506); conditions: compound concentration 10 uM, read-out: Percent Competition
T2 construct: purchased Ambit Biosciences (KINOMEscan)
Source text: as §1

FLT3(K663Q) = biological target: T3, FLT3(K663Q) (Homo sapiens, UniProt P36888, K663Q); conditions: compound concentration 10 uM, read-out: Percent Competition
T3 construct: purchased Ambit Biosciences (KINOMEscan)
Source text: as §1

[1] = biological target: T4, JAK3(JH1domain-catalytic) (Homo sapiens, UniProt P52333); conditions: compound concentration 10 uM, read-out: Percent Competition
T4 construct: JAK3(JH1domain-catalytic); purchased Ambit Biosciences (KINOMEscan)
Source text: as §1

ABL1 = biological target: T5, ABL1 (Homo sapiens, UniProt P00519); conditions: compound concentration 10 uM, read-out: Percent Competition
T5 construct: purchased Ambit Biosciences (KINOMEscan)
Source text: as §1

AKT3 = biological target: T6, AKT3 (Homo sapiens, UniProt Q9Y243); conditions: compound concentration 10 uM, read-out: Percent Competition
T6 construct: purchased Ambit Biosciences (KINOMEscan)
Source text: as §1

PAK6 = biological target: T7, PAK6 (Homo sapiens, UniProt Q9NQU5); conditions: compound concentration 10 uM, read-out: Percent Competition
T7 construct: purchased Ambit Biosciences (KINOMEscan)
Source text: as §1

BMX = biological target: T8, BMX (Homo sapiens, UniProt P51813); conditions: compound concentration 10 uM, read-out: Percent Competition
T8 construct: purchased Ambit Biosciences (KINOMEscan)
Source text: as §1

MEK2 = biological target: T9, MEK2 (Homo sapiens, UniProt P36507); conditions: compound concentration 10 uM, read-out: Percent Competition
T9 construct: purchased Ambit Biosciences (KINOMEscan)
Source text: as §1

TRKC = biological target: T10, TRKC (Homo sapiens, UniProt Q16288); conditions: compound concentration 10 uM, read-out: Percent Competition
T10 construct: purchased Ambit Biosciences (KINOMEscan)
Source text: as §1

PAK1 = biological target: T11, PAK1 (Homo sapiens, UniProt Q13153); conditions: compound concentration 10 uM, read-out: Percent Competition
T11 construct: purchased Ambit Biosciences (KINOMEscan)
Source text: as §1

EPHA2 = biological target: T12, EPHA2 (Homo sapiens, UniProt P29317); conditions: compound concentration 10 uM, read-out: Percent Competition
T12 construct: purchased Ambit Biosciences (KINOMEscan)
Source text: as §1

DMPK = biological target: T13, DMPK (Homo sapiens, UniProt Q09013); conditions: compound concentration 10 uM, read-out: Percent Competition
T13 construct: purchased Ambit Biosciences (KINOMEscan)
Source text: as §1

LIMK2 = biological target: T14, LIMK2 (Homo sapiens, UniProt P53671); conditions: compound concentration 10 uM, read-out: Percent Competition
T14 construct: purchased Ambit Biosciences (KINOMEscan)
Source text: as §1

FLT3 = biological target: T15, FLT3 (Homo sapiens, UniProt P36888); conditions: compound concentration 10 uM, read-out: Percent Competition
T15 construct: purchased Ambit Biosciences (KINOMEscan)
Source text: as §1

MLK1 = biological target: T16, MLK1 (Homo sapiens, UniProt P80192); conditions: compound concentration 10 uM, read-out: Percent Competition
T16 construct: purchased Ambit Biosciences (KINOMEscan)
Source text: as §1

PLK1 = biological target: T17, PLK1 (Homo sapiens, UniProt P53350); conditions: compound concentration 10 uM, read-out: Percent Competition
T17 construct: purchased Ambit Biosciences (KINOMEscan)
Source text: as §1

NEK6 = biological target: T18, NEK6 (Homo sapiens, UniProt Q9HC98); conditions: compound concentration 10 uM, read-out: Percent Competition
T18 construct: purchased Ambit Biosciences (KINOMEscan)
Source text: as §1

DAPK3 = biological target: T19, DAPK3 (Homo sapiens, UniProt O43293); conditions: compound concentration 10 uM, read-out: Percent Competition
T19 construct: purchased Ambit Biosciences (KINOMEscan)
Source text: as §1

IGF1R = biological target: T20, IGF1R (Homo sapiens, UniProt P08069); conditions: compound concentration 10 uM, read-out: Percent Competition
T20 construct: purchased Ambit Biosciences (KINOMEscan)
Source text: as §1

TESK1 = biological target: T21, TESK1 (Homo sapiens, UniProt Q15569); conditions: compound concentration 10 uM, read-out: Percent Competition
T21 construct: purchased Ambit Biosciences (KINOMEscan)
Source text: as §1

FER = biological target: T22, FER (Homo sapiens, UniProt P16591); conditions: compound concentration 10 uM, read-out: Percent Competition
T22 construct: purchased Ambit Biosciences (KINOMEscan)
Source text: as §1

BLK = biological target: T23, BLK (Homo sapiens, UniProt P51451); conditions: compound concentration 10 uM, read-out: Percent Competition
T23 construct: purchased Ambit Biosciences (KINOMEscan)
Source text: as §1

TRKB = biological target: T24, TRKB (Homo sapiens, UniProt Q16620); conditions: compound concentration 10 uM, read-out: Percent Competition
T24 construct: purchased Ambit Biosciences (KINOMEscan)
Source text: as §1

AKT2 = biological target: T25, AKT2 (Homo sapiens, UniProt P31751); conditions: compound concentration 10 uM, read-out: Percent Competition
T25 construct: purchased Ambit Biosciences (KINOMEscan)
Source text: as §1

MST1R = biological target: T26, MST1R (Homo sapiens, UniProt Q04912); conditions: compound concentration 10 uM, read-out: Percent Competition
T26 construct: purchased Ambit Biosciences (KINOMEscan)
Source text: as §1

LOK = biological target: T27, LOK (Homo sapiens, UniProt O94804); conditions: compound concentration 10 uM
T27 construct: purchased Ambit Biosciences (KINOMEscan)
Source text: as §1

[2] = biological target: T28, RPS6KA4(Kin.Dom.1-N-terminal) (Homo sapiens, UniProt O75676); conditions: compound concentration 10 uM, read-out: Percent Competition
T28 construct: RPS6KA4(Kin.Dom.1-N-terminal); purchased Ambit Biosciences (KINOMEscan)
Source text: as §1

MST1 = biological target: T29, MST1 (Homo sapiens, UniProt Q13043); conditions: compound concentration 10 uM
T29 construct: purchased Ambit Biosciences (KINOMEscan)
Source text: as §1

DCAMKL1 = biological target: T30, DCAMKL1 (Homo sapiens, UniProt O15075); conditions: compound concentration 10 uM
T30 construct: purchased Ambit Biosciences (KINOMEscan)
Source text: as §1

SgK110 = biological target: T31, SgK110 (Homo sapiens, UniProt P0C264); conditions: compound concentration 10 uM, read-out: Percent Competition
T31 construct: purchased Ambit Biosciences (KINOMEscan)
Source text: as §1

HIPK1 = biological target: T32, HIPK1 (Homo sapiens, UniProt Q86Z02); conditions: compound concentration 10 uM, read-out: Percent Competition
T32 construct: purchased Ambit Biosciences (KINOMEscan)
Source text: as §1

[3] = biological target: T33, RPS6KA5(Kin.Dom.1-N-terminal) (Homo sapiens, UniProt O75582); conditions: compound concentration 10 uM, read-out: Percent Competition
T33 construct: RPS6KA5(Kin.Dom.1-N-terminal); purchased Ambit Biosciences (KINOMEscan)
Source text: as §1

PFTAIRE2 = biological target: T34, PFTAIRE2 (Homo sapiens, UniProt Q96Q40); conditions: compound concentration 10 uM, read-out: Percent Competition
T34 construct: purchased Ambit Biosciences (KINOMEscan)
Source text: as §1

TLK1 = biological target: T35, TLK1 (Homo sapiens, UniProt Q9UKI8); conditions: compound concentration 10 uM, read-out: Percent Competition
T35 construct: purchased Ambit Biosciences (KINOMEscan)
Source text: as §1

MAP4K2 = biological target: T36, MAP4K2 (Homo sapiens, UniProt Q12851); conditions: compound concentration 10 uM, read-out: Percent Competition
T36 construct: purchased Ambit Biosciences (KINOMEscan)
Source text: as §1

ZAK = biological target: T37, ZAK (Homo sapiens, UniProt Q9NYL2); conditions: compound concentration 10 uM, read-out: Percent Competition
T37 construct: purchased Ambit Biosciences (KINOMEscan)
Source text: as §1

AURKA = biological target: T38, AURKA (Homo sapiens, UniProt O14965); conditions: compound concentration 10 uM, read-out: Percent Competition
T38 construct: purchased Ambit Biosciences (KINOMEscan)
Source text: as §1

CDK9 = biological target: T39, CDK9 (Homo sapiens, UniProt P50750); conditions: compound concentration 10 uM, read-out: Percent Competition
T39 construct: purchased Ambit Biosciences (KINOMEscan)
Source text: as §1

KIT(V559D,T670I) = biological target: T40, KIT(V559D,T670I) (Homo sapiens, UniProt P10721, T670I/V559D); conditions: compound concentration 10 uM, read-out: Percent Competition
T40 construct: purchased Ambit Biosciences (KINOMEscan)
Source text: as §1

T7 sequence (Q9NQU5 whole entry): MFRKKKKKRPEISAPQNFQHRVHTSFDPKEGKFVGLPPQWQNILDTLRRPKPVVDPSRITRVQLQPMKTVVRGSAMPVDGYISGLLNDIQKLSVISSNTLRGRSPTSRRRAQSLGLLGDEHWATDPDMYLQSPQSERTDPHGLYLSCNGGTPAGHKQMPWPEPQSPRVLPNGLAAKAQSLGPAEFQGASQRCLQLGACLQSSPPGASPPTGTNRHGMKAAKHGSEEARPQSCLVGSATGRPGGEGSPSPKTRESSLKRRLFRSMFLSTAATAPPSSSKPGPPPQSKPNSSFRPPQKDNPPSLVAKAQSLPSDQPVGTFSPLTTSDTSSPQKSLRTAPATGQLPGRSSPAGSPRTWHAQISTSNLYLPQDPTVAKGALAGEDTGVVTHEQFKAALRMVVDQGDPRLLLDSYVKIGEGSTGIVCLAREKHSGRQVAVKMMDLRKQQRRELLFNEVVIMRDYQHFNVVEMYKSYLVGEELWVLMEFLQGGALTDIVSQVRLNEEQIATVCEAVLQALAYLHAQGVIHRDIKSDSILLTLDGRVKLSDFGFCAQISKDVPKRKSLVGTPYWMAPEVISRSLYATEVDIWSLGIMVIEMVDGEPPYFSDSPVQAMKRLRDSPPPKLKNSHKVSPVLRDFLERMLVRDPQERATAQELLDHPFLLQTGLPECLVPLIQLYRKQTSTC
T39 sequence (P50750 whole entry): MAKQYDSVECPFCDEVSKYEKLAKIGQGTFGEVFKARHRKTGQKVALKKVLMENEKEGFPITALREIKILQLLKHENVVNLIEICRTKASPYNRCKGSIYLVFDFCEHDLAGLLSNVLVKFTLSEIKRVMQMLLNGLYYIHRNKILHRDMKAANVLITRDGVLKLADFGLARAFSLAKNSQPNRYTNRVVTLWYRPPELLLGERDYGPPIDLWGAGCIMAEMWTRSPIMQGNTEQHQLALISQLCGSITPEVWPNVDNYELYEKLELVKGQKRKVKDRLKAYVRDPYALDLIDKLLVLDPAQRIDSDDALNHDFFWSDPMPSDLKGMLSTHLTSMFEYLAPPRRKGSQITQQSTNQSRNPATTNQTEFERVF
T11 sequence (Q13153 whole entry): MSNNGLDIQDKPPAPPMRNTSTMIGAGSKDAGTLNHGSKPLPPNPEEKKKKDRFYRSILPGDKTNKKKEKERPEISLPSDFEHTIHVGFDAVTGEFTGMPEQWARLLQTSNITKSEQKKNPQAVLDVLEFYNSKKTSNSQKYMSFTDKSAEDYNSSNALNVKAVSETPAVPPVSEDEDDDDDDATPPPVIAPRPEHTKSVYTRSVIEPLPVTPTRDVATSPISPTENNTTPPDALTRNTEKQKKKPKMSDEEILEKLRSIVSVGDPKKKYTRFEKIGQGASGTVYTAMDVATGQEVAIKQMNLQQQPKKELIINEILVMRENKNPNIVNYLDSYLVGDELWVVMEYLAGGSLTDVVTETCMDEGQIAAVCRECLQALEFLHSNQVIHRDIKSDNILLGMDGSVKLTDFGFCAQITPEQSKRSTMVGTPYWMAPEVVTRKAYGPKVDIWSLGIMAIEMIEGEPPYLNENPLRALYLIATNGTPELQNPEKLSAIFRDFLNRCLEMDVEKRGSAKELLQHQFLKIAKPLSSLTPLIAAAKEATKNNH
T10 sequence (Q16288 32-839): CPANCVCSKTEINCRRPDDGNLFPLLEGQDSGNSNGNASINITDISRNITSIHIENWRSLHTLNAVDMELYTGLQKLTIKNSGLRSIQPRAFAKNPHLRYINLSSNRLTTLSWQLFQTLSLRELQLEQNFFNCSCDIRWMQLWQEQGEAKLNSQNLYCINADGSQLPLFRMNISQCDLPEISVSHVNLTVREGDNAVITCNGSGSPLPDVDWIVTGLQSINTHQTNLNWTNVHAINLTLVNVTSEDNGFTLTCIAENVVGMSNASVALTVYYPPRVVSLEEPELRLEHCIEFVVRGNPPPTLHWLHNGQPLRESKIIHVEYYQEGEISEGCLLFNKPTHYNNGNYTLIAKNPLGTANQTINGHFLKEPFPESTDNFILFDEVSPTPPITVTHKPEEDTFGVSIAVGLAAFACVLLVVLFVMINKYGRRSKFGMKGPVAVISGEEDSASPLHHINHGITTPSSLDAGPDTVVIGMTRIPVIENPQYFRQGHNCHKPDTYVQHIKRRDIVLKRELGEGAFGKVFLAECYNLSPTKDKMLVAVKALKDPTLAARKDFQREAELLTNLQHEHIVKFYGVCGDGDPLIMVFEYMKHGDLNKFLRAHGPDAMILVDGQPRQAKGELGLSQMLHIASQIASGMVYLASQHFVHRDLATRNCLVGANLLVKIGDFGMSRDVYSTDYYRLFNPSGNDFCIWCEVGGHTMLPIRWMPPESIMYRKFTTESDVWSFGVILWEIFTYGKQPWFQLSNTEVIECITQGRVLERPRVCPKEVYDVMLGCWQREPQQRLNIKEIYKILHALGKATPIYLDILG
T34 sequence (Q96Q40 whole entry): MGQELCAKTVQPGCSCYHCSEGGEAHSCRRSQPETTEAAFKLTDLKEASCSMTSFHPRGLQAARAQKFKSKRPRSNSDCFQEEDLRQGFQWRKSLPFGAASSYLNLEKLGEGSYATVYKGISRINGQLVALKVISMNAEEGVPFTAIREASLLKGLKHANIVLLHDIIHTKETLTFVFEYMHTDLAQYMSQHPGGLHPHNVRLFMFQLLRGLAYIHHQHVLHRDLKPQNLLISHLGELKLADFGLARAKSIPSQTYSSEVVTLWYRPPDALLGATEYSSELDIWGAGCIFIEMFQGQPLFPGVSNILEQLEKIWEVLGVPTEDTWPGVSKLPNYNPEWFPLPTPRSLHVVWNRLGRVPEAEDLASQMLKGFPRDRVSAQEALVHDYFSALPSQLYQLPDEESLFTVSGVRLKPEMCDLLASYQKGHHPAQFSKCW
T32 sequence (Q86Z02 whole entry): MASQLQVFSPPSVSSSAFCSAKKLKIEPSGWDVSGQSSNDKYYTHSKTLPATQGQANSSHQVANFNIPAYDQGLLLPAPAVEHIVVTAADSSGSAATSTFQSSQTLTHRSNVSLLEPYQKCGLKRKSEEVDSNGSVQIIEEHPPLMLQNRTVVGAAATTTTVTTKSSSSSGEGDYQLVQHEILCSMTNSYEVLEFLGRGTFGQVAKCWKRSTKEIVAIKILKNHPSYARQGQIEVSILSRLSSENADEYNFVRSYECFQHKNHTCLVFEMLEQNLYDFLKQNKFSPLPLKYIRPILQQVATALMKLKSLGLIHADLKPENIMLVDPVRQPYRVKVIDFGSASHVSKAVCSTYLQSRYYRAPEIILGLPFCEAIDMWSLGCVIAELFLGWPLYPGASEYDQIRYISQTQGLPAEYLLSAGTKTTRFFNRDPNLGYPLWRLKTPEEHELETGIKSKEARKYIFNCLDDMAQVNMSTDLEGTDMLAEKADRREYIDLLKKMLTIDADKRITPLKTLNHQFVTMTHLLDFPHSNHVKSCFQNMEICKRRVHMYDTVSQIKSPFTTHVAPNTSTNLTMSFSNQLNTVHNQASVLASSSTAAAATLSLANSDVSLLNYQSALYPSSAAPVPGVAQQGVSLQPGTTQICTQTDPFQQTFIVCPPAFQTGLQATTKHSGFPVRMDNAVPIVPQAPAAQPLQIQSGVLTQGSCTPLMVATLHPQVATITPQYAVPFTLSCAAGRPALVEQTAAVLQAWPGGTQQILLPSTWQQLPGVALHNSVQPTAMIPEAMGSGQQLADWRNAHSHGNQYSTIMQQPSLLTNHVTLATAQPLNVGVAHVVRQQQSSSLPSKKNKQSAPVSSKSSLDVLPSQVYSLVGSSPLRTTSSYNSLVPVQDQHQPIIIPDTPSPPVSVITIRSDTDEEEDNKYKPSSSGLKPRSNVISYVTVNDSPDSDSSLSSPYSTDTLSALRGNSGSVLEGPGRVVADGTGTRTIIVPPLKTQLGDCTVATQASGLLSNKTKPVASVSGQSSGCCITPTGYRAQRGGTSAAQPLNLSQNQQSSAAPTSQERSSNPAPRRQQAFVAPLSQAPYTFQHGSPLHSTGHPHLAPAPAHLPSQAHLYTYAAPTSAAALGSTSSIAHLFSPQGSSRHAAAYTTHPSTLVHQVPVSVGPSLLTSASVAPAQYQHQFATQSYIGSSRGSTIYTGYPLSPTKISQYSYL
T13 sequence (Q09013 whole entry): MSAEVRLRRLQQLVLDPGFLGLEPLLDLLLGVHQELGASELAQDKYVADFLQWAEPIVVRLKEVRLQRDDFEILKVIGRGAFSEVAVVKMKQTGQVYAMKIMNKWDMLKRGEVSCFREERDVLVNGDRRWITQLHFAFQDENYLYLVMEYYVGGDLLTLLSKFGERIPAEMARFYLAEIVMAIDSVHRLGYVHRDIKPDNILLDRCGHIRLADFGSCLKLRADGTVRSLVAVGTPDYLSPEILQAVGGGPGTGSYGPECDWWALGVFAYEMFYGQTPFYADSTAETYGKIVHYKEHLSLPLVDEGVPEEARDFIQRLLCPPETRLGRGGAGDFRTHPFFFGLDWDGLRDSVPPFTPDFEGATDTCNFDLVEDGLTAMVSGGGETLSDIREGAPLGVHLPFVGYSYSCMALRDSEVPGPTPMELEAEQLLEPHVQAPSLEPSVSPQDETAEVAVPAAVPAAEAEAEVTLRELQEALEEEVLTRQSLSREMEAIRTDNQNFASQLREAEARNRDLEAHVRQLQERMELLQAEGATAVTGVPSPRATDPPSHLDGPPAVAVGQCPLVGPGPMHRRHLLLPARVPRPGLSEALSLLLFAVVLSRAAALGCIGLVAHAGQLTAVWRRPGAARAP
T28 sequence (O75676 1-371 limits assumed): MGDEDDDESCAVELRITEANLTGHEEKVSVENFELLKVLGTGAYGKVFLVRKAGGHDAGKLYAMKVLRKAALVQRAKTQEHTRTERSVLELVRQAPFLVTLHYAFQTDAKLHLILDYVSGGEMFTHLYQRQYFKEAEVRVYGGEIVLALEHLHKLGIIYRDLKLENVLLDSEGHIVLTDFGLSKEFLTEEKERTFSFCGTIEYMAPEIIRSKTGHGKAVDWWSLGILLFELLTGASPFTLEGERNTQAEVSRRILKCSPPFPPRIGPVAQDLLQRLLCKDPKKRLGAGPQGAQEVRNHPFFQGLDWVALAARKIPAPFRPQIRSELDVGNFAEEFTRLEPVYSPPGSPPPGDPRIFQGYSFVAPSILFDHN

inhibition at 10 µM (INSRR): < 50%
inhibition at 10 µM (YSK1): < 50%
inhibition at 10 µM (FLT3(K663Q)): < 50%
inhibition at 10 µM [1]: < 50%
inhibition at 10 µM (ABL1): < 50%
inhibition at 10 µM (AKT3): < 50%
inhibition at 10 µM (PAK6): < 50%
inhibition at 10 µM (BMX): < 50%
inhibition at 10 µM (MEK2): < 50%
inhibition at 10 µM (TRKC): < 50%
inhibition at 10 µM (PAK1): < 50%
inhibition at 10 µM (EPHA2): < 50%
inhibition at 10 µM (DMPK): < 50%
inhibition at 10 µM (LIMK2): < 50%
inhibition at 10 µM (FLT3): < 50%
inhibition at 10 µM (MLK1): < 50%
inhibition at 10 µM (PLK1): < 50%
inhibition at 10 µM (NEK6): < 50%
inhibition at 10 µM (DAPK3): < 50%
inhibition at 10 µM (IGF1R): < 50%
inhibition at 10 µM (TESK1): < 50%
inhibition at 10 µM (FER): < 50%
inhibition at 10 µM (BLK): < 50%
inhibition at 10 µM (TRKB): < 50%
inhibition at 10 µM (AKT2): < 50%
inhibition at 10 µM (MST1R): < 50%
Percent Competition (LOK): <50%
inhibition at 10 µM [2]: < 50%
Percent Competition (MST1): <50%
Percent Competition (DCAMKL1): <50%
inhibition at 10 µM (SgK110): < 50%
inhibition at 10 µM (HIPK1): < 50%
inhibition at 10 µM [3]: < 50%
inhibition at 10 µM (PFTAIRE2): < 50%
inhibition at 10 µM (TLK1): < 50%
inhibition at 10 µM (MAP4K2): < 50%
inhibition at 10 µM (ZAK): < 50%
inhibition at 10 µM (AURKA): < 50%
inhibition at 10 µM (CDK9): < 50%
inhibition at 10 µM (KIT(V559D,T670I)): < 50%
Structure (SMILES): Fc1ccc(-c2c(-c3ccncc3)[nH]c3nccnc23)cc1 [RO1155697-000-005]
